Like-named read-outs stand apart in the source and are kept apart here.
Experiments:
ovine COX-1 = biological target: T1, ovine COX-1 (Ovis aries, UniProt P05979); assay: In vitro COX-1 inhibition assay (Cayman colorimetric COX inhibitor screening kit)
T1 sequence (P05979 25-600): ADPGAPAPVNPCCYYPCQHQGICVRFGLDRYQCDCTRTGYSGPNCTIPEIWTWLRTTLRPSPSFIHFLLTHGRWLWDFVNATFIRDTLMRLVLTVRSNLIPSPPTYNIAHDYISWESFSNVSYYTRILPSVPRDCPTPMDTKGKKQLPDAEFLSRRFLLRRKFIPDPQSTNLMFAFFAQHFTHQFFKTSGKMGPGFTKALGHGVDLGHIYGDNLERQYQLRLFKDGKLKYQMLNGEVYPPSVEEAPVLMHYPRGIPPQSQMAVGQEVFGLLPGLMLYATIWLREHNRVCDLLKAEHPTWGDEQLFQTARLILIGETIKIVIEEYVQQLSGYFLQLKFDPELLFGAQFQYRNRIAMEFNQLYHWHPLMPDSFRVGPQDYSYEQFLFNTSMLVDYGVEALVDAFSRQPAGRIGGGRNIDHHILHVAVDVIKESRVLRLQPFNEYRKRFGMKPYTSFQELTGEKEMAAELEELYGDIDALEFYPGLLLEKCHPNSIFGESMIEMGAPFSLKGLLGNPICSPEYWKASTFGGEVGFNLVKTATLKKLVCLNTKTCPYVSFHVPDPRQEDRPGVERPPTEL
Description: (§1) The in vitro enzyme assays were performed at the Biochemistry Department, Cairo
(§2) General Hospital, Egypt. Cayman® colorimetric COX (ovine) inhibitor screening assay kit (Item
(§3) enzymes in presence of all newly compounds. Generally, this kit is dependent on the reductive
(§4) reaction of COX. A specific antibody binds to PGH2 produced by COX and is further quantified
(§5) by the ELISA technique as previously reported. After that, the selectivity index (SI) was calculated
as the following equation:
𝐒𝐞𝐥𝐞𝐜𝐭𝐢𝐯𝐢𝐭𝐲 𝐢𝐧𝐝𝐞𝐱 (𝐒𝐈) = 𝐈𝐂₅₀𝐨𝐟 𝐂𝐎𝐗 − 𝟏

human COX-2 = biological target: T2, human COX-2 (Homo sapiens, UniProt P35354); assay: In vitro COX-2 inhibition assay (Cayman colorimetric COX inhibitor screening kit); details: for SI (COX-2 selectivity index): COX-1 (IC50)/COX-2 (IC50); for IC50: COX-2 IC50, mean ± SEM, n = 3
T2 sequence (P35354 18-604): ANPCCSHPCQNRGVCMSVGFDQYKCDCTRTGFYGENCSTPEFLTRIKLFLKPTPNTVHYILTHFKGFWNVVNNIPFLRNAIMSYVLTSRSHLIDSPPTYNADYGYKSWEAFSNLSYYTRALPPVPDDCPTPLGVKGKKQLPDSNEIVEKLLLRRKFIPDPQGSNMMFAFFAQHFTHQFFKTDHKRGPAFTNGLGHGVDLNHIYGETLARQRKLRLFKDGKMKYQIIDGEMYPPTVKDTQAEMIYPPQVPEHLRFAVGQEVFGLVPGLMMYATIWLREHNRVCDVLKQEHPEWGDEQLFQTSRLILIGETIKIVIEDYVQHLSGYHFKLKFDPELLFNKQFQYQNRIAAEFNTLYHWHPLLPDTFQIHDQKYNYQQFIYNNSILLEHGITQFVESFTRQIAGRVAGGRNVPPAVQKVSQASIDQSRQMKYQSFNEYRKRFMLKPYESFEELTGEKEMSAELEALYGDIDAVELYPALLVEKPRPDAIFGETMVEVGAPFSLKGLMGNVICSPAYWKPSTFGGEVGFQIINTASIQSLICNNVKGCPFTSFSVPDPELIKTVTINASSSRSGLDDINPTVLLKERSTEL
Description: as §1, §2, §3, §4, §5
as the following equation:
𝐒𝐞𝐥𝐞𝐜𝐭𝐢𝐯𝐢𝐭𝐲 𝐢𝐧𝐝𝐞𝐱 (𝐒𝐈) = 𝐈𝐂₅₀𝐨𝐟 𝐂𝐎𝐗 − 𝟏

[1] = system: carrageenan-induced paw edema; assay: Carrageenan paw edema test (paw thickness, paw weight); details: for Paw thickness difference: oral; for Paw thickness difference / Paw Weight Increase: mean ± SD, n = 6; for Percentage of inhibition of paw thickness: vs carrageenan group; for Paw Weight Increase: right vs left paw, after 5 h; as to all read-outs here: test concentration or dose not given here
COX-2 = details: cited from earlier work

| Compound | melting point [°C] | IC50 (ovine COX-1) [nM] | SI (COX-2 selectivity index) (human COX-2) | IC50 (human COX-2) [nM] | Paw thickness difference ([1]; 1st h after carrageenan) [mm] | Percentage of inhibition of paw thickness ([1]; 1st h) [%] | Paw thickness difference ([1]; 2nd h after carrageenan) [mm] | Percentage of inhibition of paw thickness ([1]; 2nd h) [%] | Paw thickness difference ([1]; 3rd h after carrageenan) [mm] | Percentage of inhibition of paw thickness ([1]; 3rd h) [%] | Paw thickness difference ([1]; 4th h after carrageenan) [mm] | Percentage of inhibition of paw thickness ([1]; 4th h) [%] | Paw thickness difference ([1]; 5th h after carrageenan) [mm] | Percentage of inhibition of paw thickness ([1]; 5th h) [%] | Paw Weight Increase [1] | Selectivity for COX-2 over COX-1 (COX-2) [fold] | IC50 (COX-2; earlier work of the authors) [nM] | IC50 (COX-2) [nM] |
| --- | --- | --- | --- | --- | --- | --- | --- | --- | --- | --- | --- | --- | --- | --- | --- | --- | --- | --- |
| O=C(O)COc1ccccc1C=NNC(=O)c1ccccc1 [Compound 5a, 2-(2-((2-Benzoylhydrazineylidene)methyl)phenoxy)acetic acid] | 209 to 211 | 10000 ± 100 | 10.31 | 970 ± 60 |  |  |  |  |  |  |  |  |  |  |  |  |  |  |
| Cc1ccc(C(=O)NN=Cc2ccccc2OCC(=O)O)cc1 [Compound 5b, 2-(2-((2-(4-Methylbenzoyl)hydrazineylidene)methyl)phenoxy)acetic acid] | 222 to 223 | 7500 ± 200 | 20.27 | 370 ± 60 |  |  |  |  |  |  |  |  |  |  |  |  |  |  |
| O=C(O)COc1ccccc1C=NNC(=O)c1ccc(Cl)cc1 [Compound 5c, 2-(2-((2-(4-Chlorobenzoyl)hydrazineylidene)methyl)phenoxy)acetic acid] | 241 to 243 | 14500 ± 200 | 111.53 | 130 ± 60 |  |  |  |  |  |  |  |  |  |  |  |  |  |  |
| O=C(O)COc1ccc(Br)cc1C=NNC(=O)c1ccccc1 [Compound 5d, 2-(2-((2-Benzoylhydrazineylidene)methyl)-4-bromophenoxy)acetic acid] |  | 9030 ± 150 | 112.87 | 80 ± 10 | 1.37 ± 0.13 | 30.57 | 2.76 ± 0.24 | 16.19 | 3.56 ± 0.33 | 15.67 | 3.7 ± 0.32 | 26.75 | 3.90 ± 0.41 | 26.51 | 76.92 ± 3.89 ^abcd % |  |  |  |
| Cc1ccc(C(=O)NN=Cc2cc(Br)ccc2OCC(=O)O)cc1 [Compound 5e, 2-(4-Bromo-2-((2-(4-methylbenzoyl)hydrazineylidene)methyl)phenoxy)acetic acid] |  | 7000 ± 200 | 100.00 | 70 ± 10 | 1.57 ± 0.4 | 20.35 | 2.53 ± 0.48 | 23.28 | 3.43 ± 0.10 | 18.71 | 3.55 ± 0.11 | 29.59 | 3.68 ± 0.15 | 30.72 | 47.55 ± 2.41 ^abcd % |  |  |  |
| O=C(O)COc1ccccc1C=NNC(=O)Cc1ccccc1 [Compound 7a, 2-(2-((2-(2-Phenylacetyl)hydrazineylidene)methyl)phenoxy)acetic acid] | 214 to 215 | 10000 ± 200 | 76.92 | 130 ± 60 |  |  |  |  |  |  |  |  |  |  |  |  |  |  |
| O=C(O)COc1ccccc1/C=N/NC(=O)CNc1ccccc1 [Compound 10a] | 221 to 222 | 9500 ± 200 | 19.00 | 500 ± 100 |  |  |  |  |  |  |  |  |  |  |  |  |  |  |
| Cc1ccc(NCC(=O)NN=Cc2ccccc2OCC(=O)O)cc1 [Compound 10b, 2-(2-((2-(4-Tolylglycyl)hydrazineylidene)methyl)phenoxy)acetic acid] | 236 to 238 | 4970 ± 60 | 15.06 | 330 ± 60 |  |  |  |  |  |  |  |  |  |  |  |  |  |  |
| O=C(O)COc1ccccc1C=NNC(=O)CNc1ccc(Cl)cc1 [Compound 10c, 2-(2-((2-((4-Chlorophenyl)glycyl)hydrazineylidene)methyl)phenoxy)acetic acid] |  | 5570 ± 120 | 79.57 | 70 ± 10 | 1.65 ± 0.22 | 16.47 | 2.64 ± 0.33 | 19.99 | 3.11 ± 0.29 | 26.25 | 3.81 ± 0.19 | 24.47 | 4.22 ± 0.28 | 20.54 | 69.01 ± 4.61 ^abcd % |  |  |  |
| O=C(O)COc1ccc(Br)cc1/C=N/NC(=O)CNc1ccccc1 [Compound 10d] |  | 7000 ± 200 | 87.50 | 80 ± 10 | 1.55 ± 0.41 | 21.37 | 2.60 ± 0.21 | 21.15 | 2.93 ± 0.37 | 30.56 | 3.44 ± 0.37 | 31.87 | 3.73 ± 0.34 | 29.71 | 60.8 ± 4.27 ^abcd % |  |  |  |
| Cc1ccc(NCC(=O)NN=Cc2cc(Br)ccc2OCC(=O)O)cc1 [Compound 10e, 2-(4-Bromo-2-((2-(p-tolylglycyl)hydrazineylidene)methyl)phenoxy)aceticacid] |  | 4070 ± 120 | 67.83 | 60 ± 10 | 1.79 ± 0.39 | 9.38 | 3.00 ± 0.30 | 9.01 | 3.58 ± 0.17 | 15.28 | 3.98 ± 0.26 | 21.24 | 4.17 ± 0.24 | 21.42 | 64.95 ± 6.79 ^abcd % |  |  |  |
| O=C(O)COc1ccc(Br)cc1C=NNC(=O)CNc1ccc(Cl)cc1 [Compound 10f, 2-(4-Bromo-2-((2-((4 chlorophenyl)glycyl)hydrazineylidene)methyl)phenoxy) acetic acid] |  | 4970 ± 60 | 55.22 | 90 ± 10 | 1.77 ± 0.27 | 10.39 | 2.85 ± 0.46 | 13.51 | 3.24 ± 0.46 | 23.17 | 3.63 ± 0.48 | 28.04 | 3.78 ± 0.51 | 28.80 | 59.16 ± 2.72 ^abcd % |  |  |  |
| O=C(O)COc1ccccc1C=NNC(=O)CNC(=O)c1ccccc1 [Compound 13a, 2-(2-((2-(Benzoylglycyl)hydrazineylidene)methyl)phenoxy)acetic acid] | 210 to 211 | 8430 ± 120 | 36.65 | 230 ± 60 |  |  |  |  |  |  |  |  |  |  |  |  |  |  |
| O=C(O)COc1ccc(Br)cc1C=NNC(=O)CNC(=O)c1ccccc1 [Compound 13b, 2-(2-((2-(Benzoylglycyl)hydrazineylidene)methyl)-4-bromophenoxy)acetic acid] | 248 to 250 | 9930 ± 120 | 76.38 | 130 ± 60 |  |  |  |  |  |  |  |  |  |  |  |  |  |  |
| NS(=O)(=O)c1ccc(-n2nc(C(F)(F)F)cc2-c2ccc(Br)cc2)cc1 [SC-558] |  |  |  |  |  |  |  |  |  |  |  |  |  |  |  | 1900 |  |  |
| O=C(O)COc1ccc(/C=C2\SC(N3N=C(c4ccc(Cl)cc4)CC3c3ccccc3)=NC2=O)cc1 (stereo not drawn) [XIV] |  |  |  |  |  |  |  |  |  |  |  |  |  |  |  |  | 60 |  |
| Cc1ccc(-c2ncc(Cl)cc2-c2ccc(S(C)(=O)=O)cc2)cn1 [etoricoxib] |  |  |  |  |  |  |  |  |  |  |  |  |  |  |  |  |  | 5000 |
| CS(=O)(=O)c1ccc(C2=C(c3ccccc3)C(=O)OC2)cc1 [rofecoxib] |  |  |  |  |  |  |  |  |  |  |  |  |  |  |  |  |  | 500 |
